# Results reported in paper PMC12036875, “Mitochondria-targeting natural product rhein conjugated with dichloroacetate as the dual inhibitor of glycolysis and oxidative phosphorylation to off energize cancer cells and induce ROS storm” (Theranostics, 2025).
# What was measured:
# 4T1 cells [1] = assay: ROS generation assay; type: cell-based, Mouse; settings: for intracellular ROS (DCFH-DA fluorescence intensity): 6.25 μM, 6 h
# Method: Rhein is thought to trigger the generation of ROS inside cells by inhibiting mitochondrial complex II, blocking electron transfer from succinate to ubiquinone, which leads to electron leakage at the flavoprotein site, [32]. Therefore, we investigated the ROS production within 4T1 cells in control, DCA, rhein, R + D and Rhein-DCA groups. […] Then, the cellular superoxide radical anion type of ROS production was further detected using dihydroethidium (DHE) fluorescence dyes after incubation with 4T1 cells. […] The flow cytometry was used to further confirm the types of reactive oxygen species, including singlet oxygen (^1O2) and hydroxyl radicals (·OH). The ^1O2 increased greatly about 2.4-fold compared with the control group, and ·OH increased about 1.4-fold (Figure 5D-E). […] Due to the conjugating of rhein, the more mitochondrial accumulation and enhanced PDK inhibition activity of DCA promoted the energy metabolism to redirect towards OXPHOS, increased the mitochondrial electron flux, and amplified the generation of ROS. Excessive ROS would cause oxidative damage of mitochondria and further frustrate OXPHOS, leading to the effectively suppress for cancer cells.
# The generation of intracellular ROS within 4T1 cells was measured with DCFH-DA, BBoxiProbe O28 and BBoxiProbe O68 and evaluated by flow cytometry. 4T1 cells were seeded into 6-well plates at a density of 10 × 10^4 cells per well and cultured at 37 °C for 24 h. The cells were treated with rhein (6.25 μM), DCA (6.25 μM), R + D (6.25 μM + 6.25 μM) and Rhein-DCA (6.25 μM) for another 6 h. Cells were detached from the plates with 0.25% Trypsin-EDTA after washed twice with PBS, flowing staining with DCFH-DA (10 μM), BBoxiProbe O28 (Ex = 516 nm, Em = 606 nm) and BBoxiProbe O68 (Ex = 516 nm, Em = 606 nm) for 20 min at 37 °C in the dark.
# The level of intracellular superoxide radical anion in 4T1 cells was analyzed with DHE by confocal microscope. 4T1 cells were seeded into confocal dishes with a density of 10 × 10^4 cells per well and treated with various drugs for 24 h and washed twice with PBS, flowing staining with DHE probe (5 μM) for 30 min at 37 °C in the dark. The cellular nuclei were stained with Hoechst 33342 for 10 min at room temperature. The fluorescent images were observed by confocal microscope.
# 4T1 cells [2] = assay: Intracellular stability by HPLC; type: in vitro ADME, Mouse
# Method: Stability of drugs is vital indexes for anticancer application. The stability of Rhein-DCA conjugate in vitro was performed by dispersing it in 2.5% dimethyl sulfoxide (DMSO)-PBS at room temperature for 0, 2, 6 and 12 h. […] Furthermore, we also quantitatively analyzed the intracellular stability of Rhein-DCA using high-performance liquid chromatography (HPLC). After 4 h of uptake, the intracellular concentration of Rhein-DCA was 0.095 μg/10^6 cells within 4T1 cells.
# UV-Vis spectra were used to investigate the stability of Rhein-DCA conjugate. The Rhein-DCA was dispersed in 2.5% DMSO-PBS at room temperature, and the absorption spectrum was monitored at 0, 2, 6 and 12 h. High performance liquid chromatography (HPLC) was used to investigate the intracellular stability of Rhein-DCA conjugate. 4T1 cells were seeded in cell culture dish (diameter of 10 cm) at a density of 2 × 10^6 cells per dish and cultured in the incubator for 24 h. Then the cells were further treated with Rhein-DCA conjugate at a concentration of 11 μg/mL for 4 h. After removing media and washing the cells three times with PBS to remove the residual Rhein-DCA, the cells were incubated for another 2 h. Then, the cells were collected and washed twice with PBS. The cells were suspended in 1 mL methanol to obtain cell lysates by three freeze-thaw. Then the supernatant was collected after centrifugation at 13000 G for 10 min for HPLC analysis. A C18 column was used with methanol / 0.1% H₃PO₄ (83:17) as the mobile phase, flow rate 1.0 mL/min, fluorescence detector with an excitation wavelength of 443 nm and an emission wavelength of 530 nm.
# mPTP in 4T1 cells = assay: Mitochondrial permeability transition pore opening assay (Calcein AM); type: cell-based, Mouse; settings: 6.25 μM, 24 h
# Text: On the other hand, rhein could also disturb mitochondria, the camp of OXPHOS, to further prevent cancer cells from obtaining ATP by inducing pathological opening of mPTP [30]. We first detected mPTP on 4T1 cancer cells treated with indicated drugs according to the mPTP assay kit. The green fluorescence of Calcein AM in mitochondria would vanish when the quencher entered mitochondria through the opened mPTP channel. […] The sustained opening of mPTP along with the loss of Δψm. Thus, we further examined the Δψm of 4T1 cancer cells with JC-1 fluorescence dyes and tetramethylrhodamine, ethyl ester (TMRE) probe. The JC-1 dyes underwent a transition from aggregated red fluorescence to monomeric green fluorescence with mitochondrial depolarization in cells, and the increase of green/red fluorescence intensity ratio of JC-1 dyes indicated mitochondrial depolarization.
# The opening status of the mPTP in 4T1 cells were tested with fluorescent probe Calcein AM. Briefly, 4T1 cells were seeded into 6-wells plates at a density of 10 × 10^4 cells per well and treated with various drugs at 6.25 μM for 24 h. After being washed twice with PBS, the cells were stained with Calcein AM staining solution (1 ×) and CoCl2 fluorescence quenching solution (1 ×) for 45 min at 37 °C in the dark. Next, they were further cultured with fresh medium at 37 °C for another 30 min in the dark. […]
# [3] = Stability in simulated gastrointestinal environment (HPLC); type: physicochemical; settings: 37°C, within 2 h
# Method: The proven oral administration experiences of rhein and DCA validated the feasibility and potential of our research on the oral administration of their derivative, Rhein-DCA [34], [35]. We first evaluated the stability of Rhein-DCA by simulating gastric acid (pH 1.5) and intestinal (pH 6.8) conditions in vitro with HPLC. The stability of the Rhein-DCA was as high as 85% within 2 h, indicating the stable of Rhein-DCA in gastrointestinal environment, and it was capable of being efficiently absorbed via the gastrointestinal tract (Figure S21).
# Prepare phosphate buffer solutions at pH 1.5 (gastric simulation) and pH 6.8 (intestinal simulation). Rhein-DCA was added to the buffer and incubated at 37°C. Samples were collected at 0, 2, 4, and 6 h for HPLC analysis. Calculate stability (%) = (Ct / C0) × 100, where Ct and C0 are concentrations at time t h and 0 h, respectively.
Compound,intracellular ROS (DCFH-DA fluorescence intensity) (4T1 cells [1]; flow cytometry),"intracellular concentration after 4 h of uptake (4T1 cells [2]; 11 μg/mL, 4 h) [μg/10^6 cells]",residual intracellular concentration after removing drug and incubating another 2 h (4T1 cells [2]; 4 h uptake then 2 h drug-free) [μg/10^6 cells],intracellular degradation rate (4T1 cells [2]; within 2 h),mPTP opening (Calcein AM green fluorescence) (mPTP in 4T1 cells),"superoxide radical anion (DHE fluorescence) (4T1 cells [1]; 24 h, CLSM)",^1O2 increase compared with control group (4T1 cells [1]; flow cytometry),·OH increase compared with control group (4T1 cells [1]; flow cytometry),stability in simulated gastric acid (pH 1.5) and intestinal (pH 6.8) conditions [3] [%]
"O=C(O)c1cc(O)c2c(c1)C(=O)c1cccc(O)c1C2=O [Rhein, 4,5-dihydroxyanthraquinone-2-carboxylic acid]",slight enhancement,,,,,,,,
O=C(OCCOC(=O)C(Cl)Cl)c1cc(O)c2c(c1)C(=O)c1cccc(O)c1C2=O [Rhein-DCA],stronger fluorescence signal,0.095,0.080,approximately 15.7%,faintest green fluorescence,remarkable red intensity,about 2.4 fold,about 1.4 fold,85
